Here are results for 44 compounds from US8759366B2, “Aminopyrimidines as SYK inhibitors” (Merck Sharp & Dohme Corp., priority 2009, dated 2014).

For the first experiment, the target named is recombinant human SYK (GST-hSYK fusion protein) (Homo sapiens (Human), UniProt P43405). Conditions: read-out: rhSYK Activity; Table 15.
Source text: Homogeneous Time-Resolved Fluorescence (HTRF) Assay for the Recombinant Human SYK Enzyme:
Take `CC(O)(c1ncc(-c2cccc(Nc3nccc(C(F)(F)F)n3)c2)s1)C1CC1` (centres unmarked) [Example 15-3]: the IC50 is < 100 nM.

Staying with this experiment, now noted: read-out: rhSYK Activity; Table 21.
Regarding `FC(F)(F)c1ccnc(Nc2cccc(-c3cnc(CCN4CCCC4=S)s3)c2)n1` [Example 21-16], the IC50 was < 100 nM.

Still in this experiment, the particulars now being: read-out: rhSYK Activity; Table 33-A.
`CCOC(=O)C1(C)CCC(O)(c2ncc(-c3cc(C)cc(Nc4nccc(C(F)(F)F)n4)c3)s2)CC1` (centres unmarked) [33A-10]: the IC50 was < 100 nM. For the compound `Cc1cc(Nc2nccc(C(F)(F)F)n2)cc(-c2cnc(C3(O)CCC(c4ccc(C(=O)O)cc4)CC3)s2)c1` (centres unmarked) [33A-17], the IC50 was < 100 nM.

Staying with this experiment, now noted: read-out: rhSYK Activity; Table 33B.
Consider `Cc1cc(Nc2nccc(C(F)(F)F)n2)cc(-c2cnc(C3(O)CCCC(c4ccc(C(=O)O)cc4)C3)s2)c1` (single isomer, unassigned) [Example 33B-16], for which the IC50 is < 100 nM.

Take `CCC1C(C)C(C(=O)O)CCC1(O)c1ncc(-c2cc(C)cc(Nc3nccc(C(F)(F)F)n3)c2)s1` (single isomer, unassigned) [Example 33B-42]: the IC50 is < 100 nM.

Take `COC1CC(O)(c2ncc(-c3cc(C)cc(Nc4nccc(C(F)(F)F)n4)c3)s2)CCC1C(=O)O` (centres unmarked) [Example 33B-13]: the IC50 is < 100 nM. Regarding `Cc1cc(Nc2nccc(C(F)(F)F)n2)cc(-c2cnc(C3(O)CCCC3Cc3ccc(C(C)C(=O)O)cc3)s2)c1` (centres unmarked) [Example 33B-2], the IC50 was < 100 nM. On the same count and under the same terms, with `COC1CC(O)(c2ncc(-c3cc(C)cc(Nc4nccc(C(F)(F)F)n4)c3)s2)CCC1C(=O)O` (centres unmarked) [Example 33B-14] the figure was < 100 nM. Consider `Cc1cc(Nc2nccc(C(F)(F)F)n2)cc(-c2cnc(C3(O)CCCC(c4ccc(C(=O)O)cc4)C3)s2)c1` (single isomer, unassigned) [Example 33B-15], for which the IC50 is < 100 nM. Take `Cc1cc(Nc2nccc(C)n2)cc(-c2cnc(C3(O)CCC(C(=O)O)C(c4ccccc4C)C3)s2)c1` (centres unmarked) [Example 33B-29]: the IC50 is < 100 nM. `Cc1cc(Nc2nccc(C(F)(F)F)n2)cc(-c2cnc(C3(O)CCC(C(=O)O)C(C(C)C)C3)s2)c1` (single isomer, unassigned) [Example 33B-23]: the IC50 was < 100 nM.

Still in this experiment, the particulars now being: read-out: rhSYK Activity; Table 33D.
Turning to `Cc1cc(Nc2nccc(C(F)(F)F)n2)cc(-c2cnc(C(C)(O)c3ccc(C(=O)O)cc3)s2)c1` (centres unmarked) [Example 33D-16], the IC50 is < 100 nM.

As to `Cc1cc(Nc2nccc(C(F)(F)F)n2)cc(-c2cnc(C(C)(O)c3ccc(NC(=O)CCCC(=O)O)cc3)s2)c1` (centres unmarked) [Example 33D-15], the IC50 was < 100 nM. The same measure, in the same setting: the figure for `COC(=O)c1ccc(C(C)(O)c2ncc(-c3cc(C)cc(Nc4nccc(C(F)(F)F)n4)c3)s2)cc1` (centres unmarked) [Example 33D-17] is 100 to 1000 nM.

The experiment is the same for the next values; noted with them: read-out: rhSYK Activity; Table 36A.
Regarding `Cc1cc(Nc2nccc(C(F)(F)F)n2)cc(-c2cnc(C3CCC4(CC3)OCCO4)s2)c1` [Example 36A-12], the IC50 fell in the range of 100 to 1000 nM.

The experiment is the same for the next values; noted with them: read-out: rhSYK Activity; Table 113A.
As for `Cc1cc(Nc2ncc(F)c(C)n2)cc(-c2cnc([C@@]3(O)CC[C@H](C(=O)O)[C@H](C)C3)s2)c1` [Example 113A-18], the IC50 is < 100 nM. As to `CCOC(=O)C1CCC(O)(c2ncc(-c3cc(C)cc(Nc4nccc(C(F)(F)F)n4)c3)s2)C(C)C1C` (centres unmarked) [Example 113A-77], the IC50 was < 100 nM.

Still in this experiment, the particulars now being: read-out: rhSYK Activity; Table 113C.
In the case of `Cc1cc(Nc2nccc(C3CC3)n2)cc(-c2cnc(C3(O)CCNC(=O)CC3)s2)c1` (centres unmarked) [113C-2], the IC50 is < 100 nM.

As for `Cc1cc(Nc2ncc(Cl)c(C)n2)cc(-c2cnc(C3(O)CCNC(=O)CC3)s2)c1` (centres unmarked) [113C-5], the IC50 is < 100 nM. For `Cc1cc(Nc2nccc(-c3cccs3)n2)cc(-c2cnc(C3(O)CCNC(=O)CC3)s2)c1` (centres unmarked) [113C-12], the IC50 is < 100 nM. The same measure, in the same setting: with `COc1nc(Nc2cc(C)cc(-c3cnc(C4(O)CCCNCC4)s3)c2)ncc1Cl` (single isomer, unassigned) [113C-15] the figure was < 100 nM; with `COc1nc(Nc2cc(C)cc(-c3cnc(C4(O)CCNC(=O)CC4)s3)c2)ncc1F` (centres unmarked) [113C-6], < 100 nM.

With `Cc1cc(Nc2nccc(C3CC3)n2)cc(-c2cnc(C3(O)CCCNCC3)s2)c1` (centres unmarked) [113C-13], the IC50 is < 100 nM. The same measure, in the same setting: with `Cc1cc(Nc2nccc(C(F)F)n2)cc(-c2cnc(C3(O)CCNC(=O)CC3)s2)c1` (centres unmarked) [113C-7] the figure was < 100 nM.

Staying with this experiment, now noted: read-out: rhSYK Activity; Table 113D, lower part (Structure).
With `Cc1cc(Nc2nccc(C(F)(F)F)n2)cc(-c2cnc(C3(O)CCC(C(=O)O)OC3)s2)c1` (single isomer, unassigned) [Example 113D-11], the IC50 is < 100 nM.

The same experiment, now with this note: read-out: rhSYK Activity; Table 116A.
Consider `COc1ccc(Cn2cc(-c3ccnc(Nc4cc(C)cc(-c5cnc(C6(O)CCC(C(=O)O)CC6)s5)c4)n3)nn2)cc1` (centres unmarked) [116A-17], for which the IC50 is < 100 nM.

The experiment is the same for the next values; noted with them: read-out: rhSYK Activity; Table 119; HTRF assay, IC50 class symbols.
Take `Cc1cc(Nc2nccc(C(F)(F)F)n2)cc(-c2cnc(C3(O)CCC(C(=O)NCc4cc(-c5ccccn5)no4)CC3)s2)c1` (centres unmarked) [Example 119-101]: the IC50 is < 100 nM. As to `Cc1cc(Nc2nccc(C(F)(F)F)n2)cc(-c2cnc(C3(O)CCC(C(=O)NCc4nncs4)CC3)s2)c1` (centres unmarked) [Example 119-67], the IC50 was < 100 nM.

Take `Cc1cc(Nc2nccc(C(F)(F)F)n2)cc(-c2cnc(C3(O)CCC(C(=O)NCc4cccnn4)CC3)s2)c1` (centres unmarked) [Example 119-58]: the IC50 is < 100 nM. `Cc1cc(Nc2nccc(C(F)(F)F)n2)cc(-c2cnc(C3(O)CCC(C(=O)Nc4ccc(O)nc4)CC3)s2)c1` (centres unmarked) [Example 119-61]: the IC50 is < 100 nM.

On to `Cc1cc(Nc2nccc(C(F)(F)F)n2)cc(-c2cnc(C3(O)CCC(C(=O)NCc4ccc(S(N)(=O)=O)cc4)CC3)s2)c1` (centres unmarked) [Example 119-104], for which the IC50 is < 100 nM. As to `Cc1cc(Nc2nccc(C(F)(F)F)n2)cc(-c2cnc(C3(O)CCC(C(=O)NCc4cccc5c4CNC5=O)CC3)s2)c1` (centres unmarked) [Example 119-98], the IC50 was < 100 nM.

Regarding `Cc1cc(Nc2nccc(C(F)(F)F)n2)cc(-c2cnc(C3(O)CCC(C(=O)NCc4ccc(CO)cc4)CC3)s2)c1` (centres unmarked) [Example 119-85], the IC50 is < 100 nM. Consider `Cc1cc(Nc2nccc(C(F)(F)F)n2)cc(-c2cnc(C3(O)CCC(C(=O)NCc4ncc[nH]4)CC3)s2)c1` (centres unmarked) [Example 119-38], for which the IC50 was < 100 nM.

The same experiment, now with this note: read-out: rhSYK Activity; recombinant human SYK, HTRF assay; class symbols.
As to `Cc1cccc(NC(=O)N2CCC(O)(c3ncc(-c4cc(C)cc(Nc5nccc(C(F)(F)F)n5)c4)s3)CC2)c1` [Example 54A-63], the IC50 was < 100 nM.

In the case of `Cc1cc(Nc2nccc(C(F)(F)F)n2)cc(-c2cnc(C3(O)CCCN(C(=O)c4ccc(O)c(F)c4)CC3)s2)c1` (racemic) [Example 54D-103], the IC50 was < 100 nM. In the case of `Cc1cc(Nc2nccc(C(F)(F)F)n2)cc(-c2cnc(C3(O)CCCN(CC(=O)O)CC3)s2)c1` (centres unmarked) [Example 54A-83], the IC50 lay within 100 to 1000 nM.

Turning to `COc1nc(Nc2cc(C)cc(-c3cnc(C4(O)CCCN(C(=O)c5cnn[nH]5)CC4)s3)c2)ncc1Cl` (single isomer, unassigned) [Example 54D-32], the IC50 was < 100 nM. For the compound `COC(=O)c1cccc(N2CCC(O)(c3ncc(-c4cc(C)cc(Nc5nccc(C(F)(F)F)n5)c4)s3)C2)c1` (centres unmarked) [Example 54B-35], the IC50 was < 100 nM.

Turning to `COc1nc(Nc2cc(C)cc(-c3cnc(C4(O)CCCN(C(=O)c5cnn[nH]5)CC4)s3)c2)ncc1Cl` (single isomer, unassigned) [Example 54D-33], the IC50 is < 100 nM.

For the compound `Cc1cc(Nc2nccc(C(F)(F)F)n2)cc(-c2cnc(C3(O)CCCN(CCF)CC3)s2)c1` (centres unmarked) [Example 54A-82], the IC50 was < 100 nM. The same measure, in the same setting: with `Cc1cc(Nc2nccc(C(F)(F)F)n2)cc(-c2cnc(C3(O)CCCN(CC(F)(F)F)CC3)s2)c1` (single isomer, unassigned) [Example 54A-85] the figure was < 100 nM.

Still in this experiment, the particulars now being: read-out: rhSYK activity.
Consider `COc1ccnc(Nc2cc(C)cc(-c3cnc(C4(NC(N)=O)CCC4)s3)c2)n1` [Example 64-4], for which the IC50 was < 100 nM.
